Consider 89 molecules from ChEMBL document CHEMBL1157539, “Thousands of chemical starting points for antimalarial lead identification” (Nature, 2010).

The structures appear in SMILES notation.

This test deals with Plasmodium falciparum. In words: GSK_TCMDC: Inhibition of Plasmodium falciparum 3D7 in whole erythrocytes, using parasite LDH activity as an index of growth. In kind it is functional, organism-based. Particulars: Plasmodium falciparum, 3D7.
Molecule `NCCCNc1ccnc2cc(Cl)ccc12` registered an XC50 of 305 nM.

The molecule `COc1ccc(NC(=O)C2c3ccccc3C(=O)N(CC(C)C)C2c2cccs2)cc1OC` (centres undefined) came in with an XC50 of 203 nM.

`O=C(/C=C/c1ccc(Cl)c(Cl)c1)N1CCC(CN2CCC(c3c[nH]c4ccncc34)CC2)CC1`: the XC50 came out at 733 nM.

`Cc1ccc(NC(=O)c2ccc3ncccc3c2)cc1OC1CCN(CCC(C)C)C1` (centres undefined) registered an XC50 of 351 nM.

As for `COc1cc(CCNC(=O)Cc2ccc3ccccc3c2)ccc1OCc1ccccc1`, the XC50 is 1020 nM.

Molecule `CN(CCN(C)C(=O)NCc1ccccc1)C(=O)NCc1ccccc1` came in with an XC50 of 930 nM.

`Cc1ccc(-c2cc(C(=O)Nc3ccc(S(=O)(=O)N4CCCCC4)cc3)[nH]n2)c(O)c1` returned an XC50 of 1770 nM.

`Fc1cc(Cl)ccc1Nc1ccnc2cc(-c3scnc3CNCCN3CCOCC3)ccc12` had an XC50 of 848 nM.

As to `COc1ccc(CC(=O)NC(CCCN2CCC(c3ccccc3)CC2)c2ccc(Cl)c(Cl)c2)cc1OC` (centres undefined), the XC50 is 1050 nM.

For `COc1ccc(C2SCC(=O)N2CCc2ccc(OC)c(OC)c2)cc1` (centres undefined), the XC50 is 306 nM.

Molecule `CCOC(=O)NC1=NC(C)(C)N(OCCCOc2ccc(C)cc2C)C(NC(=O)OCC)=N1` registered an XC50 of 126 nM.

`Cc1cccc2nc(-c3ccc(-c4ccc(CNCc5ccc(S(C)(=O)=O)cc5)cc4)cc3)[nH]c12` displayed an XC50 of 752 nM.

Regarding `O=C(Nc1ccc(O)c(-c2nc3ccccc3[nH]2)c1)c1ccc([N+](=O)[O-])cc1`, the XC50 amounted to 318 nM.

In the case of `Cc1cccc2[nH]c(-c3cc(-c4cn[nH]c4)cnc3N)nc12`, the XC50 came out at 221 nM.

For `Cc1ccn2cc(-c3ccc(NC(=O)c4ccc(Br)o4)cc3)nc2c1`, the XC50 worked out at 741 nM.

`CCCCCN(C(=O)Nc1cc(C(F)(F)F)cc(C(F)(F)F)c1)C(C)c1nc2ccccc2c(=O)n1CC` (centres undefined): the XC50 is 787 nM.

For `Oc1cc2c(cc1CN1CCN(Cc3ccccc3F)CC1)CCC2`, the XC50 was 761 nM.

`O=C(NC1CCC(CN2CCC(c3c[nH]c4ccccc34)CC2)CC1)c1csc(-c2cccc(Cl)c2Cl)n1` (centres undefined) registered an XC50 of 1730 nM.

As to `CC1CCN(c2nc(C(=O)Nc3cccc4c3CCCC4)c(C(C)C)s2)CC1`, the XC50 was found to be 1040 nM.

For `COc1cc(Nc2ccnc3ccc(C(C)(C)C)cc23)cc(OC)c1OC`, the XC50 worked out at 610 nM.

On to `CCOc1cc(C=NNc2nc(C)cc(-n3nc(C)cc3C)n2)ccc1O`, for which the XC50 was 1080 nM.

Take `CN(C)CCNC(=O)c1ccc2c(c1)ncn2-c1cc(OCc2ccccc2C(F)(F)F)c(C(N)=O)s1.CN(C)CCNC(=O)c1ccc2ncn(-c3cc(OCc4ccccc4C(F)(F)F)c(C(N)=O)s3)c2c1`: the XC50 worked out at 809 nM.

On to `COc1ccc(C=NN=c2cc(C)[nH]c3ccccc23)c2ccccc12`, for which the XC50 was 752 nM.

Turning to `Cc1cccc2nc(-c3ccc(-c4ccc(C(=O)NCCN5CCCC5)cc4)cc3)[nH]c12`, the XC50 was 519 nM.

The molecule `Cn1nc(-c2cccc(CNC3CCc4ccccc43)c2)c2cnc(NCCCN3CCCC3)nc21` (centres undefined) showed an XC50 of 877 nM.

Turning to `COc1ccccc1Nc1nc(C)cc(NCc2ccc(-c3c(C)noc3C)cc2)n1`, the XC50 was found to be 872 nM.

Turning to `C[C@@H](NC(=O)NC(CCN1CCC2(CC1)CN(S(C)(=O)=O)c1ccccc12)c1ccc(Cl)c(Cl)c1)c1ccccc1` (some centres undefined), the XC50 came to 903 nM.

The molecule `Nc1c(Cl)cc(C(O)CNCCCCCCCCCc2ccccn2)cc1Cl` (centres undefined) displayed an XC50 of 863 nM.

Consider `COc1ccc(C(=O)CC(=O)c2ccc(OC)cc2OC)c(OC)c1`, for which the XC50 is 300 nM.

`O=C(Nc1ccc2ccccc2n1)c1ccccc1-c1ccccc1` had an XC50 of 438 nM.

As to `COc1ccc2nccc(NC(=O)N3CCC(NCCOc4cc(F)cc(F)c4)CC3)c2n1`, the XC50 was determined as 770 nM.

In turn, `O=C(Cn1cc(C=C2SC(=NC3CCCC3)N(C3CCCC3)C2=O)c2ccccc21)N1CCCC1` had an XC50 of 297 nM.

In turn, `CNC(=O)/C=C/c1cc(NC(=O)Nc2ccnc3c(Br)cccc23)ccc1OC` showed an XC50 of 864 nM.

In turn, `CCC(C)NS(=O)(=O)c1ccc2nc(Nc3ccc(C)c(Cl)c3)n(C(C)C(C)C)c2c1` (centres undefined) returned an XC50 of 375 nM.

In the case of `CC(C)C1=NC(=O)c2cc([N+](=O)[O-])ccc2CN1`, the XC50 was 149 nM.

`COc1cccc(Nc2nc(C)cc(NCc3ccc(-n4ccnc4)cc3)n2)c1` gave an XC50 of 958 nM.

In the case of `COc1ccc(OC)c2c1CCN(C)C2Cc1cccc2ccccc12` (centres undefined), the XC50 is 1050 nM.

Regarding `COc1ccc(CNC2Cc3ccccc3C2)cc1-c1ccc(S(=O)(=O)NCCN2CCCC2)c(F)c1`, the XC50 came to 719 nM.

For `CCCC(C)Nc1nc(C)cc(NCCC(=O)Nc2ccc(OC)cc2)n1` (centres undefined), the XC50 amounted to 1380 nM.

Consider `CS(=O)(=O)CCNCc1ccc(-c2ccc3c(Nc4ccc(Cl)cc4F)ccnc3c2)o1`, for which the XC50 came out at 668 nM.

`O=C(Cc1cccc(Cl)c1)Nc1cccc(-c2c[nH]c3nc(Nc4cccc(OCc5ccccc5)c4)ncc23)c1` displayed an XC50 of 1040 nM.

As for `O=C(/C=C/c1ccc(Cl)c(Cl)c1)N1CCC(CCCN2CCC(c3c[nH]c4ccc(O)cc34)CC2)CC1`, the XC50 came out at 694 nM.

As to `CCOC(=O)c1nc(-c2cccnc2)[nH]c1NC(=S)NCc1ccccc1`, the XC50 stood at 711 nM.

Take `CC1CCCCN1CCCNc1ncc2c(-c3ccc(NC(=O)Nc4cc(C(F)(F)F)ccc4F)c(F)c3)nn(C)c2n1` (centres undefined): the XC50 was determined as 263 nM.

The molecule `COCCNC(=O)C(CNC(=O)c1ccc2c(c1)OCO2)NC(=O)c1ccc(-c2ccccc2)cc1` (centres undefined) yielded an XC50 of 974 nM.

As to `COc1cccc(NC(=O)c2cc(C(=O)Nc3cccc(OC)c3)cc([N+](=O)[O-])c2)c1`, the XC50 stood at 661 nM.

`CCOC(=O)c1cc(C(=O)NCCCCN2CCC(c3ccc4c(c3OC)CCCC4)CC2)ccc1-c1ccc(C(F)(F)F)cc1` came in with an XC50 of 707 nM.

For the molecule `COc1cccc2c(NN=Cc3ccccc3F)ccnc12`, the XC50 was 941 nM.

`CCOC(=O)c1ccc(Nc2cc(Nc3ccc(C(=O)OCC)cc3)nc(C)n2)cc1` displayed an XC50 of 907 nM.

In the case of `CC(C)(C)[C@@H](Nc1ccc(C#N)c2ccccc12)C(=O)NC1(Cc2ccc(O)cc2)CCCC1`, the XC50 turned out to be 1440 nM.

`COc1ccccc1N1CCN(Cc2c(O)ccc3cc(Br)ccc23)CC1` yielded an XC50 of 1150 nM.

For the molecule `CCCCN(CCCC)CCOc1cc2c(cc1OC)CCN2C(=O)/C=C/c1ccccc1Cl`, the XC50 came out at 1180 nM.

Molecule `CC(C)Cn1c(Sc2ccc(C#N)c([N+](=O)[O-])c2)nnc1-c1ccccc1Cl` returned an XC50 of 901 nM.

As to `CCSc1nc2sc3c(c2c(=O)n1-c1ccccc1)CCN(C)C3`, the XC50 came out at 457 nM.

In the case of `CC(C)c1ccc(NC(=O)c2ccc(C(=O)NC3CCN(Cc4ccccc4)CC3)cc2)cc1`, the XC50 worked out at 982 nM.

In turn, `Cc1cc(N(CCN2CCCCC2)CCN2CCCCC2)nc(Nc2ccc(Cl)cc2)n1` displayed an XC50 of 269 nM.

Molecule `CN(C)CC1CCCN1Cc1ccccc1-c1cnn(C)c(=O)c1Oc1ccc(F)cc1` (centres undefined) had an XC50 of 1220 nM.

In turn, `O=C(Cn1c(=O)cnc2ccccc21)Nc1cccc(C(=O)Nc2cccc(C(F)(F)F)c2)c1` showed an XC50 of 277 nM.

`N=C(N)NC(=O)Nc1ccc([N+](=O)[O-])c(Cl)c1`: the XC50 amounted to 880 nM.

Consider `CCOc1ccc(C(=O)Nc2cc(Br)c3c(c2)CNCC3)cc1Br`, for which the XC50 was found to be 990 nM.

Molecule `CC(C)(C)c1ccc(CNC(=O)c2cc(CNC3CCNC3)ccc2O)cc1` (centres undefined) registered an XC50 of 805 nM.

`Cc1cccc2nc(-c3ccc(-c4ccc(CN5CCOCC5)cc4)cc3)[nH]c12` registered an XC50 of 818 nM.

`Cc1ccc(CN2CCCN(Cc3cccc(NC(=O)c4cc5ccccc5s4)c3)CC2)cc1` returned an XC50 of 1190 nM.

For the molecule `Cc1cc(Nc2ccc(C)c(C)c2)n2nc(C)nc2n1`, the XC50 came to 599 nM.

`CNCCCCCCOc1ccc(CC(C)NCC(O)c2cccc(C(F)(F)F)c2)cc1` (centres undefined) showed an XC50 of 884 nM.

As to `CCCNCc1ccc(-c2ccc(CN(CCOC)C(=O)c3cccc(C#N)c3)cc2)nc1`, the XC50 was 1230 nM.

Regarding `COc1cccc2cc(C(=O)N[C@@H](CC(C)C)C(=O)Nc3cc(F)ccc3Br)oc12`, the XC50 came out at 965 nM.

Take `CC1(C)N=C(N)N=C(N)N1c1cccc(I)c1`: the XC50 turned out to be 126 nM.

As for `CCC(C(=O)Nc1cc(=O)[nH]c2nc(-c3ccco3)nn12)c1ccccc1` (centres undefined), the XC50 was 844 nM.

In turn, `CS(=O)(=O)c1ccc2[nH]c(-c3cc(-c4ccc(OCCN5CCOCC5)cc4)cnc3N)nc2c1` returned an XC50 of 1060 nM.

On to `Cc1cc(NCCC(=O)Nc2ccccc2)nc(NCCOc2ccccc2)n1`, for which the XC50 stood at 1140 nM.

Regarding `Cc1cccc(-c2cccc3c(NC(=O)N4CCc5cc6nccc(N7CCN8CCC[C@H]8C7)c6cc54)cccc23)n1`, the XC50 was determined as 916 nM.

In the case of `O=C(Nc1cccc(CN2CCCN(CCc3ccccc3)CC2)c1)c1cc2ccccc2s1`, the XC50 worked out at 1130 nM.

On to `COc1ccc(OC)c(CNCC(O)c2cc(C(F)(F)F)cc(C(F)(F)F)c2)c1` (centres undefined), for which the XC50 was found to be 443 nM.

As to `Cc1ccc(O)cc1Nc1ccnc2ccc(C(C)(C)C)cc12`, the XC50 came out at 1250 nM.

`C=CCc1cc(Cc2cnc(N)nc2N)cc(CCC)c1OC` returned an XC50 of 1360 nM.

Consider `Cc1cc(N(C)C)nc(Nc2ccc(NC(=O)c3ccc(Br)o3)cc2)n1`, for which the XC50 turned out to be 1050 nM.

In turn, `c1ccc(-c2ccc(CNCCCNc3nc4ccccc4[nH]3)cc2)cc1` came in with an XC50 of 783 nM.

Take `CN(C)Cc1cccc(-c2ccc3ccnc(N)c3c2)c1`: the XC50 was found to be 122 nM.

`CCN1CC=C(c2c[nH]c3ccccc23)CC1` gave an XC50 of 1030 nM.

In the case of `O=C(NCCCCCN1CCC(c2c[nH]c3ccccc23)CC1)c1ccc(-c2cccnc2)cc1`, the XC50 worked out at 1030 nM.

Turning to `COc1ccc2ncc(F)c(CCN3CC(O)C(CNCc4ccc5ccccc5c4)C3)c2n1` (centres undefined), the XC50 came to 501 nM.

In turn, `Cc1ccc(O)cc1Nc1ccnc2cc(-c3ccc(CN4CCCCC4)o3)ccc12` displayed an XC50 of 166 nM.

The molecule `CCOc1cccc(C(=O)Nc2nonc2-c2ccc(OC)c(OC)c2)c1` displayed an XC50 of 1020 nM.

With `Cc1cccc2nc(-c3ccc(-c4ccc(CNCCc5ccncc5)cc4)cc3)[nH]c12`, the XC50 was 208 nM.

Molecule `Cn1cnc(CCNC(=O)c2cccc(-c3ccc(-c4nc5cc(F)ccc5[nH]4)cc3)c2)c1` displayed an XC50 of 941 nM.

The molecule `CN(C)c1cccc(-c2cnc3ccc(NCc4cccc(Cl)c4)nn23)c1` registered an XC50 of 700 nM.

`COc1ccc(CCNCc2cc3c(C(C)(C)C)nn(-c4ccc(Cl)cc4)c3[nH]c2=O)cc1OC` gave an XC50 of 148 nM.

With `CCN(CCNC(=O)C1CCN(c2cc(-c3cccc(C)c3)ncn2)CC1)Cc1ccccc1`, the XC50 turned out to be 171 nM.
